Laboratory results taken from US12703685B2, “Crystalline forms of solvates of tryptophan derivatives, compositions comprising them and uses thereof” (GALIMEDIX THERAPEUTICS INC., priority 2020, dated 2026).
Square brackets hold non-standard residues; d marks the D form. Peptide text beside a SMILES is read from it. Aib = CC(C)(N)C(=O)O

Tests used:
[1] = Stability test of the crystalline salt at 50° C.; type: physicochemical; conditions: 48 hours
[2] = 50° C.
[3] = Hygroscopicity at 58-60% relative humidity; type: physicochemical; conditions: 20-25° C.
[4] = DSC heating above the melting point, residue analyzed by TLC; type: physicochemical; conditions: DSC heating cycle
Description: During the second heating cycle the peak of melting was missing, only the high temperature decomposition was observed. […]

Oral bioavailability = conditions: in vivo, rodents
Description: In some embodiments a pharmaceutical composition of the invention is an oral administration form. […] In some embodiments, the oral availability of the pharmaceutical composition of the invention is in the range of 10%. In another embodiment, the oral availability of the pharmaceutical composition of the invention is above 10%. In some embodiments the pharmaceutical composition is administered once a day, twice a day or three times a day.

| stability of crystalline salt (degradation) [1] | stability of 70 w/w % aqueous solution (degradation) ([2]; 48 hours) | thermal stability of 70 w/w % solution in water (decomposition by TLC) ([2]; N2 atmosphere, 24 hrs) | hygroscopicity: weight increase of crystals ([3]; 24 hours) [%] | hygroscopicity: weight increase of crystals ([3]; 48 hours) [%] | decomposition after heating above the melting point [4] | bioavailability (Oral bioavailability) [%] | solubility of crystalline forms (Solubility in water) | Solubility at 24° C. (Solubility in water; deionized water, 24° C., stirred 1 hr, filtered, filtrate evaporated) [w/w %] | solubility in water (concentration of solution) (Solubility in water; deionized water, room temperature) [w/w %] | Compound |
| --- | --- | --- | --- | --- | --- | --- | --- | --- | --- | --- |
| no degradation was observed | no degradation was observed | No traces of decomposition | 2.64 | 3.4 | no decomposition |  |  |  |  | CC(C)(NC(=O)[C@H](N)Cc1c[nH]c2ccccc12)C(=O)O [UB-18813] (H-[dW]-[Aib]-OH) |
|  |  |  |  |  |  | ~5 | very poor solubility | 1.3 | 1.3 | CC(C)(NC(=O)[C@H](N)Cc1c[nH]c2ccccc12)C(=O)O [compound (1)] (H-[dW]-[Aib]-OH) |
